Experiments:
[1] = tested on: MCF-7 cells; test: Cell proliferation / viability assay (EZ-Cytox); format: cell-based; conditions: Homo sapiens, MCF7, A of FIG. 6, read-out: IC50 (drug concentration required for 50% growth reduction in a survival curve)
Method: Human breast cancer cell lines, MDA-MB-231 and MCF-7 cells, were purchased from the Korea Cell Line Bank and cultured in an incubator with an atmospheric environment of 5% CO2 and a Dulbecco's Modified Eagle's Medium (DMEM) containing 10% fetal bovine serum (Corning, Glendale, AZ, USA) and 1% penicillin/streptomycin.
MCF-7 cells (1.5×10^6 cells/plate) and MDA-MB-231 cells (1.0×10^6 cells/plate) were seeded into a 96-well plate for 24 hours and incubated with dihydroconiferyl ferulate (0, 10, 25, 50, 75, 100, 150, and 200 μM). Thereafter, cell viability was examined using the EZ-Cytox Plus Kit (DoGenBio, Seoul, Korea) according to the manufacturer's protocol. OD450 values were measured using a VERSAmax ELISA reader (Molecular Device, San Jose, CA, USA).
Breast cancer cells MCF-7 and MDA-MB-231 were treated with dihydroconiferyl ferulate, a compound purified from the leaves of Dendropanax morbiferus H.Lev at various concentrations to test an antiproliferative effect, and an experimental method was described in Experimental Example 3.

[2] = tested on: CD44high/CD24low population of MDA-MB-231 cells; test: CD44+/CD24- flow cytometry; format: cell-based, human; conditions: 50 μM, 24 hours, control 80.8%
Method: MDA-MB-231 cancer cells (1.5×10^6 cells) were cultured in a 6-well plate for 24 hours and treated with DMSO as a control group or dihydroconiferyl ferulate (50 μM) for 24 hours. Thereafter, the cells isolated into single cells were incubated with an anti-human CD44 antibody (FITC-conjugated) and an anti-human CD24 antibody (PE-conjugated) (BD) at 4° C. for 45 minutes. After washing with 1×PBS, CD44^+/CD24^− cells were examined using a flow cytometer Accuri C6 machine (BD San Jose, CA, USA).
CD44^+/CD24^−, a representative marker of breast cancer stem cells, was associated with stem cell-like activity in breast cancer, and since CD44^+/CD24^− MDA-MB-231 cells show higher tumorigenesis and metastasis than CD44−/CD24^+ MDA-MB-231 cells, MDA-MB-231 cells were treated with dihydroconiferyl ferulate, and then changes in the CD44^high/CD24^low population were measured, and the experimental method was described in Experimental Example 5.

## COc1cc(/C=C/C(=O)OCCCc2ccc(O)c(OC)c2)ccc1O [dihydroconiferyl ferulate]
[1]
  IC50: 112 µM
[2]
  CD44high/CD24low population: 34.0%

— patent US20240115537A1, “COMPOSITION FOR PREVENTING OR TREATING BREAST CANCER COMPRISING COMPOUND DERIVED FROM DENDROPANAX MORBIFERUS” (JEJU NATIONAL UNIVERSITY INDUSTRY-ACADEMIC COOPERATION …, priority 2022, published 2024)
